Measurements published in the NIST ThermoML archive (doi:10.1016/j.jct.2018.01.019).

Test: molar heat capacity at constant pressure
Details: 101.33 kPa, Crystal 2, Small sample (50 mg) DSC

O=[Si]=O [silicon dioxide]
Details	molar heat capacity at constant pressure [J/K/mol]
794.62 K	71.82
794.79 K	71.62
794.95 K	71.49
795.12 K	71.46
795.29 K	71.47
795.45 K	71.5
795.62 K	71.77
795.78 K	71.9
795.95 K	71.83
796.12 K	71.66
796.29 K	71.81
796.46 K	72.04
796.62 K	72.01
796.79 K	71.86
796.96 K	71.68
797.12 K	71.48
797.29 K	71.6
797.46 K	71.73
797.62 K	71.68
797.79 K	71.65
797.96 K	71.81
798.13 K	71.82
798.29 K	71.7
798.46 K	71.81
798.62 K	71.8
798.79 K	71.9
798.96 K	72.09
799.12 K	72
799.29 K	71.85
799.46 K	71.85
799.62 K	71.85
799.79 K	71.96
799.96 K	72.13
800.12 K	72.26
800.29 K	72.07
800.46 K	71.86
800.63 K	72
800.79 K	72.09
800.96 K	72.12
801.12 K	72.16
801.29 K	71.98
801.46 K	71.96
801.63 K	71.86
801.79 K	71.9
801.96 K	71.86
802.12 K	71.92
802.29 K	71.92
802.46 K	72.04
802.62 K	72.2
802.79 K	72.1
802.96 K	71.91
803.12 K	71.68
803.29 K	71.76
803.46 K	71.76
803.63 K	71.8
803.79 K	72.11
803.96 K	72.29
804.13 K	72.1
804.29 K	71.93
804.46 K	71.94
804.62 K	71.92
804.79 K	71.93
804.96 K	72.09
805.13 K	72.17
805.29 K	72.03
805.46 K	72.03
805.63 K	72
805.79 K	72.07
805.96 K	72.1
806.13 K	72.19
806.29 K	72.25
806.46 K	72.37
806.63 K	72.33
806.79 K	72.24
806.96 K	72.08
807.13 K	71.96
807.3 K	71.9
807.47 K	72.16
807.63 K	72.29
807.8 K	72.39
807.97 K	72.54
808.13 K	72.48
808.3 K	72.36
808.47 K	72.31
808.64 K	72.39
808.81 K	72.34
808.97 K	72.47
809.14 K	72.61
809.3 K	72.59
